Activity calls are given as the source filed them. No cut-off for these calls is given here.
Tests used:
HEK-293T = experiment: Cytotoxicity against human HEK293T cells assessed as reduction in cell viability incubated for 48 hrs by MTT assay; assay type: cell-based
MDA-MB-231 [1] = experiment: Cytotoxicity against human MDA-MB-231 cells assessed as reduction in cell viability incubated for 48 hrs by MTT assay; assay type: functional, cell-based; details: Homo sapiens, MDA-MB-231, 48 h; read-out: IC50
MCF7 = experiment: Cytotoxicity against human MCF7 cells assessed as reduction in cell viability incubated for 48 hrs by MTT assay; assay type: functional, cell-based; details: Homo sapiens, MCF7, 48 h; read-out: IC50
[2] = Cytotoxicity against human H357 cells assessed as reduction in cell viability incubated for 48 hrs by MTT assay; assay type: functional, cell-based; details: Homo sapiens, H357, 48 h; read-out: IC50
MCF-10A = experiment: Cytotoxicity against human MCF-10A cells; assay type: cell-based
MDA-MB-231 [3] = experiment: Cytotoxicity against human MDA-MB-231 cells assessed as increase in deformation and shrinkage of nuclei by DAPI staining-based fluorescence microscopic analysis; assay type: functional, cell-based; details: dose 0.5-2.5 µM
MDA-MB-231 [4] = experiment: Genotoxicity in human MDA-MB-231 cells assessed as induction of DNA damage at 2 uM incubated for 24 hrs by comet assay; assay type: functional, cell-based
MDA-MB-231 [5] = experiment: Induction of apoptosis in human MDA-MB-231 cells assessed as upregulation of Bax level by measuring fold change in Bax expression by Western blot analysis relative to control; assay type: functional
MDA-MB-231 [6] = experiment: Cytotoxicity against human MDA-MB-231 cells assessed as apoptotic nuclei at 0.5 uM by DAPI staining based fluorescence microscopic analysis (reference value: 11.11 to 14.29%); assay type: functional
MDA-MB-231 [7] = experiment: Induction of apoptosis in human MDA-MB-231cells assessed as downregulation of Bcl-xl level by measuring fold change in Bcl-xl expression by Western blot analysis relative to control; assay type: functional
MDA-MB-231 [8] = experiment: Induction of apoptosis in human MDA-MB-231cells as increase in cleaved PARP1 level by measuring fold change in cleaved PARP1 expression by Western blot analysis relative to control; assay type: functional
MDA-MB-231 [9] = experiment: Induction of apoptosis in human MDA-MB-231 cells assessed as early apoptotic cells at IC50 by Annexin V/FITC-propidium iodide staining-based flow cytometric method (reference value: 7.1 +/- 0.4 %); assay type: functional
MDA-MB-231 [10] = experiment: Induction of apoptosis in human MDA-MB-231 cells assessed as late apoptotic cells at IC50 by Annexin V/FITC-propidium iodide staining-based flow cytometric method (reference value: 1.2 +/- 0.3 %); assay type: functional
MDA-MB-231 [11] = experiment: Induction of apoptosis in human MDA-MB-231 cells assessed as necrotic cells at IC50 by Annexin V/FITC-propidium iodide staining-based flow cytometric method (reference value: 4.5 +/- 0.5 %); assay type: functional
MDA-MB-231 [12] = experiment: Induction of apoptosis in human MDA-MB-231 cells assessed as viable cells at IC50 by Annexin V/FITC-propidium iodide staining-based flow cytometric method (reference value: 87.2 +/- 0.7 %); assay type: functional
[13] = Downregulation of cyclinB1 protein expression in human MDA-MB-231cells assessed as fold change in cyclin B1 expression at IC50 after 48 hrs by Western blot analysis relative to control; assay type: functional
MDA-MB-231 [14] = experiment: Cell cycle arrest in human MDA-MB-231 cells assessed as accumulation at G2/M phase at IC50 measured after 48 hrs by propidium iodide staining based FACS analysis (reference value: 30.8+/-1.6 %); assay type: functional
MDA-MB-231 [15] = experiment: Cell cycle arrest in human MDA-MB-231 cells assessed as accumulation at sub G1 phase at IC50 measured after 48 hrs by propidium iodide staining based FACS analysis (reference value: 0.7+/-0.2 %); assay type: functional
MDA-MB-231 [16] = experiment: Cell cycle arrest in human MDA-MB-231 cells assessed as accumulation at G1 phase at IC50 measured after 48 hrs by propidium iodide staining based FACS analysis (reference value: 59.3+/-2.9 %); assay type: functional
MDA-MB-231 [17] = experiment: Cell cycle arrest in human MDA-MB-231 cells assessed as accumulation at S phase at IC50 measured after 48 hrs by propidium iodide staining based FACS analysis (reference value: 9.2+/-0.3 %); assay type: functional
[18] = Upregulation of p53 protein expression in human MDA-MB-231cells assessed as fold change in p53 expression at IC50 after 48 hrs by Western blot analysis relative to control; assay type: functional
[19] = Upregulation of p21 protein expression in human MDA-MB-231cells assessed as fold change in p21 expression at IC50 after 48 hrs by Western blot analysis relative to control; assay type: functional
[20] = Downregulation of CDC6 protein expression in human MDA-MB-231cells assessed as fold change in CDC6 expression at IC50 after 48 hrs by Western blot analysis relative to control; assay type: functional
[21] = Downregulation of Cdc25A protein expression in human MDA-MB-231cells assessed as fold change in Cdc25A expression at IC50 after 48 hrs by Western blot analysis relative to control; assay type: functional
[22] = Upregulation of cyclinD1 protein expression in human MDA-MB-231cells assessed as fold change in cyclin D1 expression at IC50 after 48 hrs by Western blot analysis relative to control; assay type: functional
[23] = Downregulation of NFkappaB protein expression in human MDA-MB-231cells assessed as fold change in NF-kB expression at IC50 after 48 hrs by Western blot analysis relative to control; assay type: functional
MDA-MB-231 [24] = experiment: Cytotoxicity against human MDA-MB-231 cells assessed as reduction in cell survival by clonogenic assay; assay type: functional, cell-based
MDA-MB-231 [25] = experiment: Cytotoxicity against human MDA-MB-231 cells assessed as normal nuclei at 0.5 uM by DAPI staining based fluorescence microscopic analysis (reference value: 85.71 to 88.89%); assay type: functional
MDA-MB-231 [26] = experiment: Cytotoxicity against human MDA-MB-231 cells assessed as apoptotic nuclei at 1 uM by DAPI staining based fluorescence microscopic analysis (reference value: 4.17 to 14.29%); assay type: functional
MDA-MB-231 [27] = experiment: Cytotoxicity against human MDA-MB-231 cells assessed as normal nuclei at 1 uM by DAPI staining based fluorescence microscopic analysis (reference value: 85.71 to 95.83%); assay type: functional
MDA-MB-231 [28] = experiment: Cytotoxicity against human MDA-MB-231 cells assessed as apoptotic nuclei at 1.5 uM by DAPI staining based fluorescence microscopic analysis (reference value: 11.11 to 14.29%); assay type: functional
MDA-MB-231 [29] = experiment: Cytotoxicity against human MDA-MB-231 cells assessed as normal nuclei at 1.5 uM by DAPI staining based fluorescence microscopic analysis (reference value: 85.71 to 88.89%); assay type: functional
MDA-MB-231 [30] = experiment: Cytotoxicity against human MDA-MB-231 cells assessed as apoptotic nuclei at 2 uM by DAPI staining based fluorescence microscopic analysis (reference value: 4.17 to 14.29%); assay type: functional
MDA-MB-231 [31] = experiment: Cytotoxicity against human MDA-MB-231 cells assessed as normal nuclei at 2 uM by DAPI staining based fluorescence microscopic analysis (reference value: 85.71 to 95.83%); assay type: functional
MDA-MB-231 [32] = experiment: Cytotoxicity against human MDA-MB-231 cells assessed as apoptotic nuclei at 2.5 uM by DAPI staining based fluorescence microscopic analysis (reference value: 11.11 to 14.29%); assay type: functional
MDA-MB-231 [33] = experiment: Cytotoxicity against human MDA-MB-231 cells assessed as normal nuclei at 2.5 uM by DAPI staining based fluorescence microscopic analysis (reference value: 85.71 to 88.89%); assay type: functional

| Structure (SMILES) | IC50 (HEK-293T) [µM] | IC50 (MDA-MB-231 [1]) [µM] | IC50 (MCF7) [µM] | IC50 [2] [µM] | IC50 (MCF-10A) [µM] | Activity (MDA-MB-231 [3]) | Activity (MDA-MB-231 [4]) | fold change (FC) (MDA-MB-231 [5]) | Activity (MDA-MB-231 [6]) [%] | fold change (FC) (MDA-MB-231 [7]) | fold change (FC) (MDA-MB-231 [8]) | Activity (MDA-MB-231 [9]) [%] | Activity (MDA-MB-231 [10]) [%] | Activity (MDA-MB-231 [11]) [%] | Activity (MDA-MB-231 [12]) [%] | fold change (FC) [13] | Activity (MDA-MB-231 [14]) [%] | Activity (MDA-MB-231 [15]) [%] | Activity (MDA-MB-231 [16]) [%] | Activity (MDA-MB-231 [17]) [%] | further results |
| --- | --- | --- | --- | --- | --- | --- | --- | --- | --- | --- | --- | --- | --- | --- | --- | --- | --- | --- | --- | --- | --- |
| CN(C1=CC(=O)c2ccccc2C1=O)c1ccccc1 | 3.5 | 2 | 1.5 | 2 | 86 | Dose-Dependent Effect | Active | 2.5 | 16.67 | 0.8 | 0.9 | 22.3 | 4.8 | 20.7 | 52.2 | 0.4 | 24.6 | 7.9 | 40.4 | 27.1 | fold change (FC) [18]: 2.5; fold change (FC) [19]: 2.3; fold change (FC) [20]: 0.5; fold change (FC) [21]: 0.3; fold change (FC) [22]: 1.5; fold change (FC) [23]: 0.7; IC50 (MDA-MB-231 [24]): 1.2 µM; Activity (MDA-MB-231 [25]): 83.33%; Activity (MDA-MB-231 [26]): 27.78%; Activity (MDA-MB-231 [27]): 72.22%; Activity (MDA-MB-231 [28]): 30.77%; Activity (MDA-MB-231 [29]): 69.23%; Activity (MDA-MB-231 [30]): 56.41%; Activity (MDA-MB-231 [31]): 43.59%; Activity (MDA-MB-231 [32]): 78.57%; Activity (MDA-MB-231 [33]): 21.43% |
| COc1cccc(NC2=CC(=O)c3ccccc3C2=O)c1 | 4.5 | 2.1 | 2 | 2.1 | 90 | Dose-Dependent Effect | Active | 1.6 | 17.95 | 0.6 | 0.3 | 26.1 | 5.3 | 18.5 | 50.1 | 0.3 | 23.3 | 11.8 | 44.7 | 20.2 | fold change (FC) [18]: 2.1; fold change (FC) [19]: 2.1; fold change (FC) [20]: 0.4; fold change (FC) [21]: 0.4; fold change (FC) [22]: 1.8; fold change (FC) [23]: 0.7; IC50 (MDA-MB-231 [24]): 1.5 µM; Activity (MDA-MB-231 [25]): 82.05%; Activity (MDA-MB-231 [26]): 36.11%; Activity (MDA-MB-231 [27]): 63.89%; Activity (MDA-MB-231 [28]): 48.72%; Activity (MDA-MB-231 [29]): 51.28%; Activity (MDA-MB-231 [30]): 54.55%; Activity (MDA-MB-231 [31]): 45.45%; Activity (MDA-MB-231 [32]): 80.95%; Activity (MDA-MB-231 [33]): 19.05% |
